Measurements as given in PubChem BioAssay AID256 (DTP/NCI, 2004).
Where “and” joins values, the source holds several entries; their conditions need not be identical. Equal entries are not always repeated. Toxic doses and inconclusive results are not listed.

System: CD2F1 mice, L1210 leukemia ip, survival T/C
Assay: NCI In Vivo Anticancer Drug Screen. Data for tumor model L1210 Leukemia (intraperitoneal) in CD2F1 (CDF1) mice
Details: endpoint: mean survival time, higher = longer survival
In short: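 Antitumor effect is scored in animals hosting a serially transplanted tumor. Values compare compound-dosed animals against vehicle-only controls as a simple quotient.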

[1] = dose: 100.0 mg/kg/injection, schedule: Q01DX001 (ip), vehicle: saline with Tween-80
[2] = dose: 200.0 mg/kg/injection, schedule: Q01DX001 (ip), vehicle: saline with Tween-80
[3] = dose: 75.0 mg/kg/injection, schedule: Q04DX003 (ip), vehicle: saline with Tween-80
[4] = dose: 400.0 mg/kg/injection, schedule: Q01DX001 (ip), vehicle: saline with Tween-80
[5] = dose: 100.0 mg/kg/injection, schedule: Q04DX002 (ip), vehicle: saline with Tween-80
[6] = dose: 200.0 mg/kg/injection, schedule: Q04DX002 (ip), vehicle: saline with Tween-80
[7] = dose: 400.0 mg/kg/injection, schedule: Q04DX002 (ip), vehicle: saline with Tween-80
[8] = dose: 100.0 mg/kg/injection, schedule: Q04DX003 (ip), vehicle: saline
[9] = dose: 200.0 mg/kg/injection, schedule: Q04DX003 (ip), vehicle: saline
[10] = dose: 400.0 mg/kg/injection, schedule: Q04DX003 (ip), vehicle: saline
[11] = dose: 75.0 mg/kg/injection, schedule: Q01DX001 (ip), vehicle: saline
[12] = dose: 150.0 mg/kg/injection, schedule: Q01DX001 (ip), vehicle: saline
[13] = dose: 50.0 mg/kg/injection, schedule: Q01DX009 (ip), vehicle: saline with Tween-80
[14] = dose: 100.0 mg/kg/injection, schedule: Q01DX009 (ip), vehicle: saline with Tween-80
[15] = dose: 200.0 mg/kg/injection, schedule: Q01DX009 (ip), vehicle: saline with Tween-80
[16] = dose: 100.0 mg/kg/injection, schedule: Q04DX003 (ip), vehicle: saline with Tween-80
[17] = dose: 200.0 mg/kg/injection, schedule: Q04DX003 (ip), vehicle: saline with Tween-80
[18] = dose: 400.0 mg/kg/injection, schedule: Q04DX003 (ip), vehicle: saline with Tween-80
[19] = dose: 100.0 mg/kg/injection, schedule: Q01DX009 (ip), vehicle: saline
[20] = dose: 200.0 mg/kg/injection, schedule: Q01DX009 (ip), vehicle: saline

For `Nc1cc(=O)c2ncn(C3OC(CO)C(O)C3O)c2[nH]1` (centres undefined), the T/C (dose: 25.0 mg/kg/injection, schedule: Q01DX005 (ip), vehicle: other) was 98 % of control, the T/C (dose: 50.0 mg/kg/injection, schedule: Q01DX005 (ip), vehicle: other) was 93 % of control and the T/C (dose: 100.0 mg/kg/injection, schedule: Q01DX005 (ip), vehicle: other) was 87 % of control. The T/C (dose: 200.0 mg/kg/injection, schedule: Q01DX005 (ip), vehicle: other) was 106 % of control and the T/C (dose: 400.0 mg/kg/injection, schedule: Q01DX005 (ip), vehicle: other) was 103 % of control.
In the case of `C/C(=N\Nc1ccc([N+](=O)[O-])cc1[N+](=O)[O-])C1CCC(=O)O1` (centres undefined), the T/C (dose: 50.0 mg/kg/injection, schedule: Q01DX001 (ip), vehicle: saline with Tween-80) is reported as 109 % of control, the T/C [1] is reported as 103 % of control and the T/C [2] is reported as 103 % of control.
`C1=CC2OC1c1ccccc12` was tested, and the T/C (dose: 100.0 mg/kg/injection, schedule: Q04DX003 (ip), vehicle: other) was 93 % of control, the T/C (dose: 200.0 mg/kg/injection, schedule: Q04DX003 (ip), vehicle: other) was 98 % of control and the T/C (dose: 400.0 mg/kg/injection, schedule: Q04DX003 (ip), vehicle: other) was 93 % of control.
For `Cc1ccc(Nc2c3ccccc3nc3ccccc23)cc1`, the T/C (dose: 37.5 mg/kg/injection, schedule: Q04DX003 (ip), vehicle: saline with Tween-80) was 101 % of control, the T/C (dose: 40.0 mg/kg/injection, schedule: Q04DX003 (ip), vehicle: other) was 120 % of control and the T/C [3] was 102 % of control. The T/C (dose: 150.0 mg/kg/injection, schedule: Q04DX003 (ip), vehicle: other) was 160 % of control.
For `CC1CCC(CC(N)=O)C1(C)C` (centres undefined), the T/C [1] was 97 % of control, the T/C [2] was 105 % of control and the T/C [4] was 97 % of control.
`[Br][OsH].[C-]#[O+].c1ccc([PH+](c2ccccc2)c2ccccc2)cc1.c1ccc([PH+](c2ccccc2)c2ccccc2)cc1.c1ccc([PH+](c2ccccc2)c2ccccc2)cc1` was tested, and the T/C [5] was 91 % of control, the T/C [6] was 87 % of control and the T/C [7] was 87 % of control.
With `COc1cc(NC2CCCCC2O)c2nc(-c3ccc(Cl)cc3)ccc2c1` (centres undefined) the T/C (dose: 50.0 mg/kg/injection, schedule: Q04DX003 (ip), vehicle: saline) was 110 % of control, the T/C [8] was 96 % of control and the T/C [9] was 107 % of control. The T/C [10] was 112 % of control.
With `CN1C2CCC1CC(OC(=O)/C=C/C(=O)OC1CC3CCC(C1)N3C)C2` (centres undefined) the T/C [11] was 94 % of control, the T/C [12] was 106 % of control and the T/C (dose: 300.0 mg/kg/injection, schedule: Q01DX001 (ip), vehicle: saline) was 94 % of control.
In the case of `O=C1N(c2ccccc2)SN2C3C=CC(C4CC43)N12` (centres undefined), the T/C (dose: 12.5 mg/kg/injection, schedule: Q04DX002 (ip), vehicle: saline with Tween-80) is reported as 114 % of control and the T/C (dose: 25.0 mg/kg/injection, schedule: Q04DX002 (ip), vehicle: saline with Tween-80) is reported as 105 % of control.
In the case of `C/C(=C/C(C)(C)C)C1CCCCC1C` (centres undefined), the T/C [13] is reported as 100 % of control, the T/C [14] is reported as 100 % of control and the T/C [15] is reported as 116 % of control.
`O=C(O)c1ccc(P(=O)(O)O)cc1[N+](=O)[O-]` was tested, and the T/C (dose: 25.0 mg/kg/injection, schedule: Q01DX009 (ip), vehicle: saline) was 91 % of control and the T/C (dose: 50.0 mg/kg/injection, schedule: Q01DX009 (ip), vehicle: saline) was 86 % of control.
With `CCOC(=O)CNCC(O)C(Cl)(Cl)Cl` (centres undefined) the T/C [16] was 102 % of control, the T/C [17] was 98 % of control and the T/C [18] was 96 % of control.
For `CCOc1ccc(/C=C(/C#N)C(N)=O)cc1`, the T/C (dose: 50.0 mg/kg/injection, schedule: Q04DX003 (ip), vehicle: saline with Tween-80) was 97 % of control, the T/C [16] was 94 % of control and the T/C [17] was 92 % of control.
`N#CCCSc1ccccc1` was tested, and the T/C [16] was 90 % of control, the T/C [17] was 102 % of control and the T/C [18] was 96 % of control.
`COC1=C(C)C(=O)c2c(c(COC(N)=O)c3n2CC2C3N2C)C1=O` (centres undefined) was tested, and the T/C (dose: 2.25 mg/kg/injection, schedule: Q01DX001 (ip), vehicle: acetone) was 103 % of control, the T/C (dose: 2.9 mg/kg/injection, schedule: Q01DX001 (ip), vehicle: acetone) was 102 % of control and the T/C (dose: 4.5 mg/kg/injection, schedule: Q01DX001 (ip), vehicle: acetone) was 110 % of control. The T/C (dose: 6.75 mg/kg/injection, schedule: Q01DX001 (ip), vehicle: acetone) was 118 % of control and the T/C (dose: 6.75 mg/kg/injection, schedule: Q01DX001 (ip), vehicle: saline) was 112 % of control.
`Cc1ccc(S(=O)(=O)NC(=O)O/N=C/c2ccccn2)cc1` was tested, and the T/C [14] was 100 % of control, the T/C [15] was 91 % of control and the T/C (dose: 400.0 mg/kg/injection, schedule: Q01DX009 (ip), vehicle: saline with Tween-80) was 100 % of control.
For `Cn1c2cc(Cl)c(Cl)cc2nc2cc3c(cc21)c(Cl)c(=O)c1cc2cc(Cl)c(Cl)cc2cc13`, the T/C [8] was 95 % of control, the T/C [9] was 95 % of control and the T/C [10] was 100 % of control.
In the case of `NCc1ccncc1`, the T/C (dose: 100.0 mg/kg/injection, schedule: Q04DX002 (ip), vehicle: saline) is reported as 106 % of control, the T/C (dose: 200.0 mg/kg/injection, schedule: Q04DX002 (ip), vehicle: saline) is reported as 95 % of control and the T/C (dose: 400.0 mg/kg/injection, schedule: Q04DX002 (ip), vehicle: saline) is reported as 98 % of control.
In the case of `O`, the T/C [11] is reported as 96 % of control, the T/C [19] is reported as 88 % of control and the T/C [20] is reported as 100 % of control. For the same compound, the T/C (dose: 400.0 mg/kg/injection, schedule: Q01DX009 (ip), vehicle: saline) was 96 % of control.
`S=C1NC(c2ccccc2)NC(c2ccccc2)S1` (centres undefined) was tested, and the T/C (dose: 12.0 mg/kg/injection, schedule: Q04DX003 (ip), vehicle: other) was 86 % of control, the T/C (dose: 25.0 mg/kg/injection, schedule: Q04DX003 (ip), vehicle: other) was 97 % of control and the T/C (dose: 50.0 mg/kg/injection, schedule: Q04DX003 (ip), vehicle: other) was 90 % of control.
For `C/C=C/C(OC(C)=O)OC(C)=O`, the T/C [14] was 97 % of control and the T/C [15] was 103 % of control.
In the case of `CCOc1ccccc1/C=C1\N=C(c2ccc(Cl)cc2)OC1=O`, the T/C [5] is reported as 94 % of control, the T/C [6] is reported as 98 % of control and the T/C [7] is reported as 94 % of control.
For `CCN(CC)CCOCCO`, the T/C [19] was 102 % of control and the T/C [20] was 96 % of control.
For `CCCCCCCCCCCCCCCC(=O)NCCN(CC)CC`, the T/C (dose: 25.0 mg/kg/injection, schedule: Q01DX009 (ip), vehicle: saline with Tween-80) was 95 % of control, the T/C [13] was 98 % of control and the T/C [3] was 97 % of control. The T/C [12] was 98 % of control.
`CON(C)CC(O)c1ccccc1` (centres undefined) was tested, and the T/C [16] was 94 % of control and the T/C [17] was 92 % of control.
`FCCc1ccccc1` was tested, and the T/C (dose: 50.0 mg/kg/injection, schedule: Q04DX003 (ip), vehicle: saline sonified) was 98 % of control, the T/C [1] was 97 % of control and 94 % of control and the T/C (dose: 100.0 mg/kg/injection, schedule: Q04DX003 (ip), vehicle: saline sonified) was 98 % of control. For the same compound, the T/C [2] was 95 % of control, the T/C (dose: 200.0 mg/kg/injection, schedule: Q04DX003 (ip), vehicle: saline sonified) was 98 % of control and the T/C [4] was 103 % of control and 94 % of control.
